Source: patent US20160129033A1, “COMBINATION OF RO5503781 AND CAPECITABINE FOR CANCER THERAPY” (HOFFMANN-LA ROCHE INC., priority 2013, published 2016)

Tested on: LoVo cell line
Experiment: Tumor growth inhibition and survival (ILS) in mice implanted with LoVo cell line
Assay type: in vivo
Excerpt: The LoVo cell line was selected for implantation in mice as it is a p53 wildtype cell line that lacks MDM2 amplification or overexpression and therefore is felt to be more reflective of clinical reality of the colorectal cancer patient population of interest.
The following treatment groups were used in the study
Efficacy data was graphically represented as the mean tumor volume±standard error of the mean (SEM). In addition, tumor volumes of treated groups were presented as percentages of tumor volumes of the control groups (% T/C), using the formula: 100×((T-T0)/(C-C0)), where T represented mean tumor volume of a treated group on a specific day during the experiment, T0 represented mean tumor volume of the same treated group on the first day of treatment; C represented mean tumor volume of a control group on the specific day during the experiment, and C0 represented mean tumor volume of the same treated group on the first day of treatment.
Tumor volume (in cubic millimeters) was calculated using the ellipsoid formula: (D×(d^2))/2, where “D” represents the large diameter of the tumor and “d” represents the small diameter. In some cases, tumor regression and/or percent change in tumor volume was calculated using the formula: ((T-T0)/T0)×100, where ‘T’ represents mean tumor volume of the treated group at a particular day, and ‘T0’ represents mean tumor volume of the same treated group at initiation of treatment.
Statistical analysis was determined by the rank sum test and One Way Anova and a post-hoc Bonferroni t-test (SigmaStat, version 2.0, Jandel Scientific, San Francisco, Calif., USA). Differences between groups were considered to be significant when the probability value (p) was ≦0.05.
For survival assessment, the percent of increased life space (ILS) was calculated as: 100×[(median survival day of treated group−median survival day of control group)/median survival day of control group]. Median survival was determined utilizing Kaplan Meier survival analysis. Survival in treated groups was statistically compared with the vehicle group and survival comparisons were done between groups using the log-rank test (Graph Pad Prism, La Jolla, Calif., USA). Differences between groups were considered significant when the probability value (p) was ≦0.05.

[1] = Capecitabine 200 mg/kg qd × 14 po
[2] = Capecitabine 400 mg/kg qd × 14 po

SMILES	% Increased Life Span (ILS) [1] [%]	Mean Tumor Volume [1] [cubic millimeters]	% Inhibition (EOS) (TGI) [1] [%]	% T/C (EOS) [1] [%]	% Increased Life Span (ILS) [2] [%]	Mean Tumor Volume [2] [cubic millimeters]	% Inhibition (EOS) (TGI) [2] [%]	% T/C (EOS) [2] [%]	% Increased Life Span (ILS) (Cpd. A 80 mg/kg qd × 5 po) [%]	Mean Tumor Volume (Cpd. A 80 mg/kg qd × 5 po) [cubic millimeters]	% Inhibition (EOS) (TGI) (Cpd. A 80 mg/kg qd × 5 po) [%]	% T/C (EOS) (Cpd. A 80 mg/kg qd × 5 po) [%]	% Increased Life Span (ILS) (Cpd. A 100 mg/kg qweekly×3 po) [%]	Mean Tumor Volume (Cpd. A 100 mg/kg qweekly×3 po) [cubic millimeters]	% Inhibition (EOS) (TGI) (Cpd. A 100 mg/kg qweekly×3 po) [%]	% T/C (EOS) (Cpd. A 100 mg/kg qweekly×3 po) [%]
CCCCCOC(=O)Nc1nc(=O)n([C@@H]2O[C@H](C)[C@@H](O)[C@H]2O)cc1F [Capecitabine, 5′-deoxy-5-fluoro-N-[(pentyloxy)-carbonyl]-cytidine]	40	130.14	72	28	49	130.66	88	12								
COc1cc(C(=O)O)ccc1NC(=O)[C@@H]1N[C@@H](CC(C)(C)C)[C@](C#N)(c2ccc(Cl)cc2F)[C@H]1c1cccc(Cl)c1F [Compound A, 4-{[(2R,3S,4R,5S)-4-(4-Chloro-2-fluoro-phenyl)-3-(3-chloro-2-fluoro-phenyl)-4-cyano-5-(2,2-dimethyl-propyl)-pyrrolidine-2-carbonyl]-amino}-3-methoxy-benzoic acid]									23	130.39	62	38	17	130.11	55	45
